Results taken from patent US20100266573A1, “METHOD AND MEANS FOR OBTAINING BRONCHORELAXATION” (Pharmalundensis AB, priority 2007, published 2010).

Experiments:
[1] = system: patient with chronic obstructive pulmonary disease (COPD); test: Administration of iodine on activated charcoal to a COPD patient, spirometric evaluation and observed bronchorelaxation; type: in vivo, human; conditions: same COPD patient; 50 mg elemental iodine in a gelatin capsule for a few days
Description: A person, had been smoking cigarettes daily for many years, but quit about 10 years ago. The decision to quit smoking was caused by increasing problems from the airways, with repeated episodes of pneumonia and airway obstruction. These symptoms were usually treated with antibiotics, steroids and bronchodilators.
After that, the airway symptoms increased considerably, with month-long episodes of cough and exercise-induced dyspnea.
In the following months the situation continued to worsen with loss of appetite, reduction of weight and severe dyspnea during rest, in spite of maximum treatment with anti-cholinergics, steroids and bronchodilators. The patient now felt desperately ill, and questioned how long they would be able to survive.
The severity of their condition prompted the patient to look for alternative treatments. […] […] […] A renewed spirometric evaluation a few months later confirmed the subjective improvements (FEV1=2.79 L, corresponding to 97.1% of their reference value and PEF=427 L/min, corresponding to 92.5% of their reference value).
The patient has continued to regularly take the combination for more than a year and still experiences the full benefit of it. A temporary discontinuation of the intake for a few days led to the reappearance of many of the symptoms. However, they quickly disappeared upon the resumption of the intake of iodinated activated charcoal. […]

[2] = may cause adverse effects in some individuals; cited from earlier work
[3] = humans; cited from earlier work

Structure (SMILES)	bronchorelaxing effect [1]	iodine intake probably safe for the majority of the population [2]	no-effect level [3] [mg/kg body weight]
II [elemental iodine, iodine]	no distinct bronchorelaxing effect was observed	less than or equal to 1,000 mg/day	–
[Br-].[Na+] [Sodium bromide, sodium bromide]	–	–	4
